Laboratory results published in US10364222B2, “Cyclic amine derivative and medical use thereof” (Toray Industries, Inc., priority 2016, dated 2019).

Key:
[1] = test system: mouse experimental autoimmune encephalomyelitis model; test: Mouse experimental autoimmune encephalomyelitis model; type: in vivo; conditions: C57BL/6J mice, vs vehicle
Experimental: Using increase in the neurological symptom score as an index of exacerbation of symptoms, the effect of the cyclic amine derivative (I) or a pharmacologically acceptable salt thereof in a mouse experimental autoimmune encephalomyelitis model was evaluated. The mouse experimental autoimmune encephalomyelitis model was prepared by a partially modified method by Hindinger et al. (Journal of Neuroscience Research, 2006, Vol. 84, p. 1225-1234).
A total of 0.1 mL (0.05 mL on each side) of an MOG35-55 administration solution prepared by mixing a PBS solution containing partial synthetic peptides of myelin oligodendrocyte glycoproteins (MOG35-55; CSBio, Inc.) prepared to a concentration of 4 mg/mL with Freund's complete adjuvant at equal amount was intradermally inoculated to both flank sides of C57BL/6J mice (male, 8 weeks old) (Charles River Laboratories Japan, Inc.). Furthermore, 200 μL of pertussis toxin (Sigma-Aldrich Japan) prepared to a concentration of 1 μg/mL was intraperitoneally administered to the mice on the day of inoculation and 2 days after inoculation of the MOG35-55 administration solution.
After inoculation of the MOG35-55 administration solution, the test compound was administered to the mice. As the test compound, the compound of Example 20, the compound of Example 29, and the compound of Example 57 were used. The compound of Example 20 was suspended in a 0.5 w/v % methylcellulose solution and orally administered once daily at a dose of 3 mg/kg every day from 2 days after inoculation of the MOG35-55 administration solution. […]
After inoculation of the MOG35-55 administration solution, the neurological symptom scores in the groups in which test compound was administered and the corresponding vehicle administration groups were scored (0: normal, 1: limp tail or hind limb weakness, 2: limp tail and hind limb weakness, 3: partial hind limb paralysis, 4: complete hind limb paralysis, 5: moribund state). […]

[2] = test system: oxazolone-induced mouse atopic dermatitis model; test: Oxazolone-induced mouse atopic dermatitis model; type: in vivo; conditions: BALB/c mice; 10 mg/kg orally once daily for 15 days from the sensitization day; vs vehicle, Student's t-test P<0.05
Experimental: Using increase in the ear thickness as an index of exacerbation of symptoms, the effect of the cyclic amine derivative (I) or a pharmacologically acceptable salt thereof in an oxazolone-induced mouse atopic dermatitis model was evaluated. The oxazolone-induced mouse atopic dermatitis model was prepared by a partially modified method by Nakajima et al. (Journal of Investigative Dermatology, 2014, Vol. 134, p. 2122-2130).
BALB/c mice (female, 7 weeks old) (Charles River Laboratories Japan, Inc.) were used at 8 or 9 weeks old after preliminary breeding. To the back of the mice, 25 μL of a 3 w/v % oxazolone solution dissolved in ethanol was applied to sensitize the mice. Every other day from 5 days to 13 days after the sensitization, 10 μL each of a 0.6 w/v % oxazolone solution dissolved in ethanol was applied to both sides of the right auricle of the sensitized mice to induce inflammation.
The test compound at a dose of 10 mg/kg was administered to the mice once daily for 15 days from the sensitization day to 14 days after sensitization. As the test compound, the compound of Example 20, the compound of Example 29, and the compound of Example 57 were used. The compound of Example 20, the compound of Example 29, and the compound of Example 57 were suspended in a 0.5 w/v % methylcellulose solution and orally administered. The group in which the compound of Example 20 was administered to mice was defined as the Example-20 compound administration group, the group in which the compound of Example 29 was administered was defined as the Example-29 compound administration group, and the group in which the compound of Example 57 was administered was defined as the Example-57 compound administration group. In the vehicle administration group, a vehicle of each test compound (0.5 w/v % methylcellulose solution) was similarly administered.
The right ear thickness before application of the oxazolone solution (before sensitization) on the sensitization day and the right ear thickness on the next day of final induction were measured with a digital micrometer (Mitutoyo Corporation). […]

CC(=O)N1CCCC[C@@H]1C(=O)Nc1ccc(-c2ccccc2OC(F)(F)F)c(Cl)c1 [Example 20, (R)-1-acetyl-N-(2-chloro-2′-(trifluoromethoxy)-[1,1′-biphenyl]-4-yl)piperidine-2-carboxamide]
increase in the neurological symptom score ([1]; 3 mg/kg orally once daily from 2 days after MOG35-55 inoculation, score on the 13th day, Wilcoxon test P<0.05 (FIG. 1)): statistically significantly suppressed | change in the ear thickness (right ear, next day of final induction − before sensitization) [2]: statistically significantly suppressed

CN(CC(=O)N1CCCC[C@@H]1C(=O)Nc1ccc(-c2ccccc2OC(F)(F)F)c(Cl)c1)S(C)(=O)=O [Example 29, (R)-N-(2-chloro-2′-(trifluoromethoxy)-[1,1′-biphenyl]-4-yl)-1-(2-(N-methylmethylsulfonamide)acetyl)piperidine-2-carboxamide]
increase in the neurological symptom score ([1]; 1 mg/kg orally once daily from 13 days after MOG35-55 inoculation, score on the 23rd day, Wilcoxon test P<0.05 (FIG. 2)): statistically significantly suppressed | change in the ear thickness (right ear, next day of final induction − before sensitization) [2]: statistically significantly suppressed

O=C(Nc1ccc(-c2ccccc2OC(F)(F)F)c(Cl)c1)[C@H]1CCCCN1C(=O)Cn1cnnn1 [Example 57, (R)-1-(2-(1H-tetrazol-1-yl)acetyl)-N-(2-chloro-2′-(trifluoromethoxy)-[1,1′-biphenyl]-4-yl)piperidine-2-carboxamide]
increase in the neurological symptom score ([1]; 1 mg/kg orally once daily from 13 days after MOG35-55 inoculation, score on the 30th day, Wilcoxon test P<0.05 (FIG. 3)): statistically significantly suppressed | change in the ear thickness (right ear, next day of final induction − before sensitization) [2]: statistically significantly suppressed
